Here are results for 23 compounds from PubChem BioAssay (NCI).

Where “and” joins values, the source holds several entries; their conditions need not be identical. Equal values may be shown once.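 Step 1: Grow cells in 96-well plates. Step 2: Expose to compound for 48 hours at 5 concentrations. Step 3: Interpolate endpoints linearly; if unreached, use highest concentration. GI50: concentration for 50% inhibition of growth. TGI: total growth inhibition.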

Assay in all cases: growth of human tumour cells (NCI), 48 h
In assay [1] the test system is MDA-N.
The subject of assay [2] is DLD-1 colon.
The subject of assay [3] is DMS 114 small cell lung.
The subject of assay [4] is DMS 273 small cell lung.
Assay [5] has as its system HOP-18 NSCLC.
The subject of assay [6] is M19-MEL melanoma.
The subject of assay [7] is SNB-78 CNS.
Assay [8] deals with XF 498 CNS.
Assay [9] concerns LXFL 529 NSCLC.
Assay [10] has as its system RXF-631 renal.

In turn, `COC1=C(Br)C(O)C2(C=C1Br)CC(C(=O)NCCCCNC(=O)C1=NOC3(C=C(Br)C(OC)=C(Br)C3O)C1)=NO2` (stereo not drawn) displayed a TGI in assay [1] of 39.7 µM.
Turning to `COc1ccc2c(c1)[n+]([O-])c(-c1ccc(Br)cc1)c(N)[n+]2[O-]`, the TGI is greater than 100 µM in [2]; 57.9 µM in assay [3]; 68.9 µM in [4]; greater than 100 µM in assay [5]; greater than 100 µM in [6]; greater than 100 µM in assay [7]. In assay [8], the TGI is greater than 100 µM.
Consider `COc1ccc(CNC(C)C(=O)O)cc1` (stereo not drawn), for which the TGI in assay [1] was greater than 100 µM.
On to `Cc1cc2nc3ccc(=[N+](C)C)cc-3sc2cc1N`, for which the TGI in assay [2] stood at 23.5 µM; in assay [3], 2.79 µM; in [4], 12.2 µM; in assay [5] it was 36.6 µM; in [9], 18.1 µM; in [6], 0.354 µM. Besides, the TGI in [1] is 2.35 µM; in assay [7], 54.9 µM.
`NC(=S)N/N=C/c1ccc(N)cn1`: the TGI in assay [1] was greater than 10 µM.
Regarding `C[C@]12CCC[C@H](O)[C@H]1C[C@H](CO)CC2`, the TGI in assay [2], in [4], in assay [5], in assay [9], in [6] and in assay [10] was greater than 100 µM throughout. In addition, the TGI in assay [8] is greater than 100 µM.
On to `COc1ccc2c(Cc3c4ccccc4cc4ccccc34)cncc2c1O`, for which the TGI in assay [1] came to 4.55 µM.
The same measure, in the same setting: the result for `c1ccc(CN2CCC3(CC2)SSC2(CCN(Cc4ccccc4)CC2)SS3)cc1` reads greater than 100 µM.
Regarding `C/C(=N\NC(=S)N1CCN(C2CCCCCC2)CC1)c1ccccn1`, the GI50 in assay [2] was less than 0.001 µM; in assay [3], less than 0.001 µM; in [4], less than 0.001 µM; in assay [5], 0.422 µM; in assay [6], 0.928 µM; in assay [7], 4.58 µM. For the same compound, the TGI is 1.96 µM in [2]; 0.0461 µM and < 0.0408 µM in [3]; 8.26 µM and 2.19 µM in assay [4]; 7.89 µM in assay [5]; 2.67 µM in [9]; 3.37 µM in [6]. Also, the TGI in assay [7] was found to be 19 µM.
Compound `CC(C)=CCC1=C(OCC(=O)O)C(=O)c2ccccc2C1=O` returned a TGI in assay [1] of 34.8 µM.
As for `CSc1nc2c(nc(N)n2C2OC(COC(C)=O)C(OC(C)=O)C(OC(C)=O)C2OC(C)=O)c(=O)n1C` (stereo not drawn), the TGI in assay [2], in [3], in assay [5], in assay [9], in [10] and in assay [7] was greater than 100 µM each time. Also, the TGI in assay [8] is greater than 100 µM.
Take `COC(=O)NC(=Nc1ccc(Oc2ccccc2)cc1NC=O)NC(=O)OC`: the TGI in assay [2] is greater than 100 µM; in assay [3], 0.864 µM; in [5], greater than 100 µM; in assay [9], greater than 100 µM; in assay [6] it was greater than 100 µM; in [8], 6.75 µM.
As for `COc1ccc2c(c1)C1OCCNC1CC2` (stereo not drawn), the TGI in [1] is greater than 100 µM.
Take `COC(=O)C1=Cc2cc(OC)c(OC)cc2[C@H](c2ccc(OC)c(OC)c2)C1C(=O)OC` (stereo partly drawn): the TGI in assay [3], in assay [4], in assay [9], in [6], in [7] and in assay [8] was greater than 100 µM throughout.
Consider `O=C(/C=C/c1ccccc1Cl)c1cccc2ccccc12`, for which the TGI stood at 25.1 µM in [2]; 15.2 µM in [3]; 31.6 µM in assay [4]; 29.7 µM in [5]; 11.9 µM in [9]; 23.5 µM in assay [6]. The TGI in assay [7] stood at 44.8 µM.
In the case of `COC(=O)N/N=C(\C(=O)Nc1cccc([N+](=O)[O-])c1)c1nc2ccc([N+](=O)[O-])cc2[nH]c1=O`, the TGI was greater than 100 µM in assay [2]; 40.1 µM in assay [3]; greater than 100 µM in assay [5]; greater than 100 µM in assay [9]; greater than 100 µM in [6]; greater than 100 µM in assay [8].
In assay [1], `NS(=O)(=O)c1ccc(NCc2cnc3ccccc3n2)cc1` showed a TGI greater than 100 µM.
For `C=C1COC(O)(C2OCOC(C3CC(=O)NC(=O)C3)C2O)C1C` (stereo not drawn), the GI50 is 0.0109 µM in assay [2] and 0.0112 µM in [5]. The TGI was 0.0556 µM and 0.0675 µM in assay [2]; 0.0271 µM and 0.0437 µM in [3]; 0.0283 µM and 0.0417 µM in assay [4]; 0.035 µM and 0.0686 µM in [5]; 0.0897 µM and 0.101 µM in [9]; 0.00849 µM and 0.0215 µM in assay [6]. In addition, the TGI in [1] was 0.0289 µM; in assay [10] it was 0.0249 µM and 0.0329 µM; in assay [7], 0.0971 µM and 0.0358 µM.
Turning to `NC(=O)c1ncn(CCN2CCN(C(=O)NCCCCCCNC(=O)N3CCN(CCn4cnc(C(N)=O)c4N)CC3)CC2)c1N`, the TGI in assay [2], in [4], in assay [5], in assay [9], in assay [10] and in assay [7] was greater than 100 µM throughout. Further, the TGI in assay [8] is greater than 100 µM.
The compound `CCC(CCC(C)C1CCC2C3CC=C4CC(OC5OC(CO)C(O)C(O)C5O)CCC4(C)C3CCC12C)C(C)C` (stereo not drawn) returned a TGI in [1] greater than 100 µM.
In assay [1], `C[C@]12CC[C@H]3[C@@H](CCC4=CC(=O)CC[C@@]43C)[C@@H]1CC[C@@H]2C(=O)COS(=O)(=O)c1ccc(Br)cc1` showed a TGI of 33.8 µM.
Regarding `O=C(CC1(O)C(=O)Nc2ccccc21)c1ccc(F)cc1` (stereo not drawn), the TGI in assay [2], in assay [3], in assay [4], in assay [9], in [6] and in assay [7] was greater than 100 µM throughout. For the same compound, the TGI in assay [8] is greater than 100 µM.
On to `COc1cc2oc(-c3ccc(O)cc3O)c(CC=C(C)C)c(=O)c2c(O)c1/C=C/C(C)C`, for which the TGI in assay [1] came to 8.34 µM.
